Calls of active or inactive are those of the source. The calls are words filed in the database; no cut-off is given here.
Key:
[1] = system: Rattus norvegicus; test: Antiulcerogenic activity in Wistar rat assessed as cytoprotection against ethanol-induced gastric lesions at 40 mg/kg administered 60 mins before ethanol challenge; format: functional, organism-based; set-up: dose 40 mg/kg; conditions: Stomach
[2] = system: Rattus norvegicus; test: Antiulcerogenic activity in Wistar rat assessed as cytoprotection against ethanol-induced gastric lesions administered 60 mins before ethanol challenge; format: functional, organism-based; conditions: Stomach

Question: How did the Activity [1] turn out when `C=C1C(=O)O[C@@H]2C[C@@H](C)[C@@H]3C=CC(=O)[C@@]3(C)[C@@H](O)[C@H]12` was run?
Answer: Active

Question: With `CC1=CC(=O)C2=C(C)CC[C@@H]3[C@H](OC(=O)[C@H]3C)[C@@H]12` as the compound, how does the Activity [1] read?
Answer: inactive

Question: How did the Activity [1] turn out when `C=C1C(=O)O[C@H]2[C@H](O)[C@@H](C)[C@@H]3[C@@H](OC(=O)/C(C)=C\C)C[C@H](O)[C@@]3(C)[C@H](OC(C)=O)[C@H]12` was run?
Answer: Active

Question: How did the Activity [1] turn out when `C=C1C(=O)O[C@H]2[C@H]1CCC(C)=C1C[C@H]3O[C@@]3(C)[C@@H]12` was run?
Answer: Active

Question: Which results are given for `C=C1C(=O)O[C@@H]2[C@H]3C(C)=CC(=O)C3=C(C)CC[C@@H]12`?
Answer: Activity [2]: Dose-dependent effect; Activity [1]: Active

Question: `C=C1C(=O)O[C@@H]2[C@H]3C(=C)[C@@H](O)C[C@H]3C(=C)C[C@H](OC(=O)/C(C)=C\C)[C@@H]12` was tested. Which Activity [1] did it give?
Answer: Active

Question: How did the Activity [1] turn out when `C=C1C(=O)O[C@H]2C[C@@H](C)[C@@H]3C=CC(=O)[C@@]3(C)[C@H](O)[C@H]12` was run?
Answer: Active

Question: Which Activity [2] does the source give for `C=C1C(=O)O[C@@H]2[C@H]1CC[C@H](C)[C@@]1(O)C=CC(=O)[C@@]21C` here?
Answer: Dose-dependent effect

Question: And the Activity [1]?
Answer: Active
